Tests used:
histamine H4 receptor [1] = target: T1, histamine H4 receptor (Homo sapiens, UniProt Q9H3N8); assay: H4 binding, method 1 ([3H]-histamine filtration binding on CHO cell membranes); conditions: H4 binding, method 1; Ki calculated from IC50 (Cheng-Prussoff)
T1 construct: expressed in transfected cells; host or cells: CHO cells
In short: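 Membranes from CHO cells expressing human H4 receptor (20-35 μg/well) incubated 90 min at room temperature with 3 nM [3H]-histamine in 50 mM Tris-HCl pH 7.4, ± competitor. Bound label separated by filtration on PEI-soaked GF/B filters and counted by scintillation; non-specific binding with 10 μM JNJ7777120.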

histamine H4 receptor [2] = target: T1, histamine H4 receptor; assay: H4 binding, method 2 ([3H]-histamine binding with Ysi WGA beads on CHO cell membranes); conditions: H4 binding, method 2, Ki calculated from IC50 (Cheng-Prussoff)
In short: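 Membranes from H4-expressing CHO cells were pre-bound to WGA SPA beads, then incubated 90 min at room temperature with 6.5 nM [3H]-histamine in 50 mM Tris-HCl pH 7.4, with or without competitor. Non-specific binding defined with 10 μM JNJ7777120; bound label read by scintillation counting.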

Ki (histamine H4 receptor [1]) [nM]	Ki (histamine H4 receptor [2]; read-out: Method 2 (Ki (nM))) [nM]	Structure (SMILES)	Ki (histamine H4 receptor [2]; Method 2 (Ki (nM))) [nM]
1.95	12.2	CNC1CN(c2cc(NCC3CC3)nc(N)n2)C1 [Example 63, N^4-Cyclopropylmethyl-6-(3-methylamino-azetidin-1-yl)-pyrimidine-2,4-diamine]	
37.7	59.2	CNC1CN(c2cc(NCCC(C)(C)C)ncn2)C1 [Example 59, N-(3,3-Dimethylbutyl)-6-[3-(methylamino)azetidin-1-yl]pyrimidin-4-amine]	
0.278	1.6	CNC1CN(c2cc(NCC3CCC3)nc(N)n2)C1 [Example 67, N^4-Cyclobutylmethyl-6-(3-methylamino-azetidin-1-yl)-pyrimidine-2,4-diamine]	
839	> 16200	CCN1CCN(c2cc(NCCC(C)(C)C)ncn2)CC1 [Example 270, N-(3,3-Dimethylbutyl)-6-(4-ethylpiperazin-1-yl)pyrimidin-4-amine]	
0.58	16.8	CNC1CN(c2cc(NCCC(C)C)nc(N)n2)C1 [Example 74, 6-[3-(Methylamino)azetidin-1-yl]-N^4-(3-methylbutyl)pyrimidine-2,4-diamine]	
3.57	28.8	CNC1CN(c2cc(NC(C)C)nc(N)n2)C1 [Example 60, N^4-Isopropyl-6-(3-methylamino-azetidin-1-yl)-pyrimidine-2,4-diamine]	
8.94	14.1	CNC1CN(c2cc(NCCC(F)(F)F)nc(N)n2)C1 [Example 62, 6-(3-Methylamino-azetidin-1-yl)-N^4-(3,3,3-trifluoro-propyl)-pyrimidine-2,4-diamine]	
82.3	335	CN1CCN(c2cc(NCCC(C)(C)C)ncn2)CC1 [Example 1, N-(3,3-Dimethylbutyl)-6-(4-methylpiperazin-1-yl)pyrimidin-4-amine]	
2.7	19.3	CN[C@@H]1CCN(c2cc(NCC3CC3)nc(N)n2)C1 [Example 9, N^4-(Cyclopropylmethyl)-6-[(3R)-3-(methylamino)pyrrolidin-1-yl]pyrimidine-2,4-diamine]	
17.5	19.8	CNC1CN(c2cc(NCc3cccc(F)c3)nc(N)n2)C1 [Example 65, N^4-(3-Fluoro-benzyl)-6-(3-methylamino-azetidin-1-yl)-pyrimidine-2,4-diamine]	
10.7	29.9	CNC1CN(c2cc(NCC(C)C)ncn2)C1 [Example 49, N-Isobutyl-6-[3-(methylamino)azetidin-1-yl]pyrimidin-4-amine]	
201	1800	CC(C)(C)CCNc1cc(N2CCNCC2)ncn1 [Example 111, N-(3,3-Dimethylbutyl)-6-piperazin-1-ylpyrimidin-4-amine]	
30.5	58.1	CC(C)CNc1cc(N2CC[C@@H](N(C)C)C2)ncn1 [Example 20, 6-[(3R)-3-(Dimethylamino)pyrrolidin-1-yl]-N-isobutyl-pyrimidin-4-amine]	
10.6	31.6	CN[C@@H]1CCN(c2cc(NCC(C)(C)C)nc(N)n2)C1 [Example 11, N^4-(2,2-Dimethylpropyl)-6-[(3R)-3-(methylamino)pyrrolidin-1-yl] pyrimidine-2,4-diamine]	
4.63	4.43	CNC1CN(c2cc(NCCC(C)(C)C)nc(N)n2)C1 [Example 64, N^4-(3,3-Dimethyl-butyl)-6-(3-methylamino-azetidin-1-yl)-pyrimidine-2,4-diamine]	
1.29	14	CNC1CN(c2cc(NCC(C)C)nc(N)n2)C1 [Example 71, N^4-Isobutyl-6-[3-(methylamino)azetidin-1-yl]pyrimidine-2,4-diamine]	
0.979	6.26	CNC1CN(c2cc(NCC3CCCC3)nc(N)n2)C1 [Example 68, N^4-Cyclopentylmethyl-6-(3-methylamino-azetidin-1-yl)-pyrimidine-2,4-diamine]	
13.6	23.3	CN[C@@H]1CCN(c2cc(NCC(C)C)ncn2)C1 [Example 14, N-Isobutyl-6-[(3R)-3-(methyl-amino)pyrrolidin-1-yl]pyrimidin-4-amine]	
1.66	1.33	CNC1CN(c2cc(NCC(C)(C)C)nc(N)n2)C1 [Example 61, N^4-(2,2-Dimethylpropyl)-6-[3-(methylamino)azetidin-1-yl]pyrimidine-2,4-diamine]	
58.9	59.3	CN(C)[C@@H]1CCN(c2cc(NCC(C)(C)C)ncn2)C1 [Example 22, 6-[(3R)-3-(Dimethylamino)pyrrolidin-1-yl]-N-(2,2-dimethylpropyl)pyrimidin-4-amine]	
	255	CNC1CN(c2cc(NCc3ccc(C#N)cc3)nc(N)n2)C1 [Example 77, 4-[({2-Amino-6-[3-(methyl-amino)azetidin-1-yl]pyrimidin-4-yl}amino)methyl]benzonitrile]	
	1440	CN1CCN(c2cc(NCCC(C)(C)C)nc(N(C)C)n2)CC1 [Example 330, N^4-(3,3-Dimethylbutyl)-N^2,N^2-dimethyl-6-(4-methylpiperazin-1-yl)pyrimidine-2,4-diamine]	
		Nc1nc(NC2CC2)cc(N2C[C@H]3CCCN[C@H]3C2)n1 (racemic) [Example 31, N^4-Cyclopropyl-6-[(4aR*,7aR*)-octahydro-6H-pyrrolo[3,4-b]pyridin-6-yl] pyrimidine-2,4-diamine]	21.1

Structure (SMILES)	Ki (histamine H4 receptor [1]) [nM]	Ki (histamine H4 receptor [2]; read-out: Method 2 (Ki (nM))) [nM]	Ki (histamine H4 receptor [2]; Method 2 (Ki (nM))) [nM]
CN1CCC(N(C)c2cc(NCCC(C)(C)C)ncn2)CC1 [Example 279, N′-(3,3-Dimethylbutyl)-N-methyl-N-(1-methylpiperidin-4-yl)pyrimidine-4,6-diamine]	1370	> 9130	
CC(C)Nc1cc(N2CCN(C)CC2)nc(N)n1 [Example 119, N^4-Isopropyl-6-(4-methylpiperazin-1-yl)pyrimidine-2,4-diamine]	3.44		7.8
CN1CCN(c2cc(NCC(C)(C)C)ncn2)CC1 [Example 99, N-(2,2-Dimethylpropyl)-6-(4-methylpiperazin-1-yl)pyrimidin-4-amine]	23.6		38.1
CN1CCN(c2cc(NCC3CC3)nc(N)n2)CC1 [Example 122, N^4-(Cyclopropylmethyl)-6-(4-methylpiperazin-1-yl)pyrimidine-2,4-diamine]	3.65		8.65
CC(C)(C)CNc1cc(N2C[C@H]3CCCN[C@H]3C2)nc(N)n1 (racemic) [Example 30, N^4-(2,2-Dimethylpropyl)-6-[(4aR*,7aR*)-octahydro-6H-pyrrolo[3,4-b]pyridin-6-yl] pyrimidine-2,4-diamine]	3.06		19.3
CC(C)CNc1cc(N2CCN(C)CC2)nc(N)n1 [Example 121, N^4-Isobutyl-6-(4-methylpiperazin-1-yl)pyrimidine-2,4-diamine]	2.18		6.64
CCNc1cc(N2CCN(C)CC2)nc(N)n1 [Example 120, N^4-Ethyl-6-(4-methylpiperazin-1-yl)pyrimidine-2,4-diamine]	4.89		11.2

Reference: patent publication US7943628B2, “Pyrimidine derivatives” (Pfizer Limited, priority 2005, dated 2011)
